The source of these data is article PMC7097893 (ACS Omega, 2020).

*1 amine or outer side, *2 acyl side, *3 side chain or, on linkers, in order; H or OH if unused. Where a SMILES comes first, the peptide text is derived from it. Bridges are numbered along the chain shown (N, C = ends). Biphenyl(4,4'-CH2)2 = c1cc(-c2ccc(C[*:2])cc2)ccc1C[*:1]

Data set [1] is described as follows: circular dichroism. The conditions noted are these: 10 mM Tris-HCl; pH 7; 25 °C; 50 uM. On the technique in general: Circular dichroism is widely used to follow secondary structure.
The format of data set [2] is physicochemical. To be noted: pH 7.
The target of data set [3] is galectin-3 (Gal-3) carbohydrate-binding domain. The conditions noted are these: read-out: Kd to Gal-3; cited from earlier work.
Data set [4] addresses galectin-3 (Gal-3) (Homo sapiens, UniProt P17931). The class given is binding.

galectin-3 (Gal-3), sequence (P17931 whole entry): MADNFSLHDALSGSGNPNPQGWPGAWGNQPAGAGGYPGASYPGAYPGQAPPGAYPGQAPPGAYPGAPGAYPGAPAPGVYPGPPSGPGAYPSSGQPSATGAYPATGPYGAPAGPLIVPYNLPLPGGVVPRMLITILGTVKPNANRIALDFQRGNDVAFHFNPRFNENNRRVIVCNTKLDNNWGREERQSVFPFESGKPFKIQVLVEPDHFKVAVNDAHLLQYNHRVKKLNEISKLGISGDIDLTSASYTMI

In data set [1], `C[C@H](NC(=O)[C@H](CCCCN)NC(=O)[C@H](CCCCN)NC(=O)[C@@H]1CSCc2ccc(cc2)-c2ccc(cc2)CSC[C@H](NC(=O)[C@H](CCC(=O)O)NC(=O)[C@@H]2CCCN2C(=O)[C@H](C)NC(=O)CN)C(=O)N[C@@H](CCCCN)C(=O)N[C@@H](CCCNC(=N)N)C(=O)N[C@@H](CCCCN)C(=O)N[C@@H](CCC(=O)O)C(=O)N[C@@H](Cc2ccc(O)cc2)C(=O)N[C@@H](CCC(=O)O)C(=O)N1)C(=O)NCC(N)=O` (H-GAPECKRKEYECKKAG-NH2; linker 5-12 via Biphenyl(4,4'-CH2)2) registered a helicity of 30%.
For the compound H-GAAECAAKEAACKAAG-NH2 [control], the “helicity (α-helical content)” value in data set [2] is on record as 3.4%.
Take `C[C@H](NC(=O)CN)C(=O)N[C@@H](CCC(N)=O)C(=O)N[C@@H](CCC(=O)O)C(=O)N[C@H]1CSCc2ccc(cc2)-c2ccc(cc2)CSC[C@@H](C(=O)N[C@@H](CCCCN)C(=O)N[C@@H](CCCCN)C(=O)N[C@@H](C)C(=O)NCC(N)=O)NC(=O)[C@H](C)NC(=O)[C@@H]2CCCN2C(=O)[C@H](CCC(=O)O)NC(=O)[C@H](CCCCN)NC(=O)[C@@H]2CCCN2C(=O)[C@@H]2CCCN2C1=O` (H-GAQECPPKEPACKKAG-NH2; linker 5-12 via Biphenyl(4,4'-CH2)2): the helicity in data set [1] amounted to 14%.
On the same count and under the same terms, the value for `CC(C)[C@@H]1NC(=O)[C@@H](NC(=O)[C@H](CCC(=O)O)NC(=O)[C@H](CCC(N)=O)NC(=O)[C@H](C)NC(=O)CN)CSCc2ccc(cc2)-c2ccc(cc2)CSC[C@@H](C(=O)N[C@@H](CCCCN)C(=O)N[C@@H](CO)C(=O)N[C@@H](C)C(=O)NCC(N)=O)NC(=O)[C@H](CO)NC(=O)[C@H](CCC(N)=O)NC(=O)[C@H](CCC(=O)O)NC(=O)[C@H](CCCCN)NC(=O)[C@H](Cc2ccc(O)cc2)NC1=O` (H-GAQECVYKEQSCKSAG-NH2; linker 5-12 via Biphenyl(4,4'-CH2)2) was 32%.
A word on the Kd: it is a measure of binding affinity in units of concentration. On to `CC(=O)N[C@H]1C(O)O[C@H](CO)[C@@H](O[C@@H]2O[C@H](CO)[C@H](O)[C@H](O)[C@H]2O)[C@@H]1O` (some centres unmarked) [N-acetyllactosamine], for which the Kd in data set [3] is 200 µM.
With “H-GAQECVYKEQSCKSAG-GGGK-(flu)-NH2 [p4-flu]”, the “Gal-3 binding of non-stapled peptide (fluorescent intensity change)” value in data set [4] was “did not show significant fluorescent changes”.
Same read-out and setting: the value for “H-GAPECKRKEYECKKAG-GGGK-(flu)-NH2 [p10-flu]” was “did not show any Gal-3 binding”.
For “H-GAQECPPKEPACKKAG-GGGK-(flu)-NH2 (sidechain bridge or staple) [p8-flu-BP]”, the “effect of excess lactose on fluorescent intensity change with Gal-3” value in data set [4] was “did not significantly affect”.
